The numbers were not newly measured in patent publication US11999734B2, “Compounds and compositions for the treatment of cystic fibrosis” (Fondazione Istituto Italiano Di Tecnologia, priority 2018, dated 2024), which cites them from elsewhere.

For data set [1], the target named is F508del-CFTR (Homo sapiens, UniProt P13569, DEL508-508). To be noted: chronic treatment of cells with VX-770; Cholon et al. 2014, Veit et al. 2014.
Data set [2] relates to CF patients.

Sequence of F508del-CFTR (P13569 with tags, fused parts or gaps DEL508-508): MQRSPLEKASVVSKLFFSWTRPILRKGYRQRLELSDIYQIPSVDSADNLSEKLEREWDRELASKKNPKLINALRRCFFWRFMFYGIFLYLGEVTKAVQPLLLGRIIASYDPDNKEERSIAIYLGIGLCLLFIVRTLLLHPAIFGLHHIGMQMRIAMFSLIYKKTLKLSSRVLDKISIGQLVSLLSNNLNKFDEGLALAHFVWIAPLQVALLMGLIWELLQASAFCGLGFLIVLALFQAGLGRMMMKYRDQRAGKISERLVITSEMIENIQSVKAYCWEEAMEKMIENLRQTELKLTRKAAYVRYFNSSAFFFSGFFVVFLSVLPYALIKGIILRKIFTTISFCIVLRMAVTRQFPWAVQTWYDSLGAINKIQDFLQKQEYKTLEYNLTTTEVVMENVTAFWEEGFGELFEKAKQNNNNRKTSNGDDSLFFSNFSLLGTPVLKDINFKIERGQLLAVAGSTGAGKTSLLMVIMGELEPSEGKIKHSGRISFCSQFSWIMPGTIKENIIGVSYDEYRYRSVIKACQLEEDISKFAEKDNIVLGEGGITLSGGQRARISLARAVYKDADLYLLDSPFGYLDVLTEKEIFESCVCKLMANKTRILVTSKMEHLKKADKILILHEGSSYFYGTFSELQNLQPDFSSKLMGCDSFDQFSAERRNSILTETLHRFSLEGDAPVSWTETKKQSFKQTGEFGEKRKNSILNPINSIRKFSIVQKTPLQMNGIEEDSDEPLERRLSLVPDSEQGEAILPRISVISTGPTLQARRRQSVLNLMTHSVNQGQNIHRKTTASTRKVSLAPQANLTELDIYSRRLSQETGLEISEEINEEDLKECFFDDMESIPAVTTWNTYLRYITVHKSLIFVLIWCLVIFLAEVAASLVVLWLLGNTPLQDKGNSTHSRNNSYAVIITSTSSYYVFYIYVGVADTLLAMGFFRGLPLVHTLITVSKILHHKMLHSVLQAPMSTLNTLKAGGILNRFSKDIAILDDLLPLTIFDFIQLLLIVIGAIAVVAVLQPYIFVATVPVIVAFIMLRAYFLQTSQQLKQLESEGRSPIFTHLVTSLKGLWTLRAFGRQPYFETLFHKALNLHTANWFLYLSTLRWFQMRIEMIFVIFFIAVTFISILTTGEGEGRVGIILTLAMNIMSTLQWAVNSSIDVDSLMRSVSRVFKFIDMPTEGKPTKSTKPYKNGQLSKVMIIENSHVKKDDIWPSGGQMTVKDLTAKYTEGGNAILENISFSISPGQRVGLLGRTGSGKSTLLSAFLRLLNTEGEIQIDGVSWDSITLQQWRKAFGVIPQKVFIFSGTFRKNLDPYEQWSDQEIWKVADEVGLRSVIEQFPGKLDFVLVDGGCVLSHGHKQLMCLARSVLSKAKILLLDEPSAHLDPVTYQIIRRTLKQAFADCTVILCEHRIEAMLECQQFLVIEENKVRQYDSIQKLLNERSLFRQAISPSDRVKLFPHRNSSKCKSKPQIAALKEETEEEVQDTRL

For `CC(C)(C)c1cc(C(C)(C)C)c(NC(=O)c2c[nH]c3ccccc3c2=O)cc1O` [VX-770, ivacaftor], the “effect on corrector activity of VX-809” value in data set [1] is “decreases the corrector activity of VX-809”. Besides, the “efficacy in clinical trials” value in data set [2] (VX-770, Ramsey et al. 2011) was “high efficacy”. Take `Cc1ccc(NC(=O)C2(c3ccc4c(c3)OC(F)(F)O4)CC2)nc1-c1cccc(C(=O)O)c1` [VX-809, lumacaftor]: in data set [2] (CF patients with F508del mutation, Clancy et al. 2012), the “therapeutic benefit in clinical trials” value was “did not show a clear therapeutic benefit”.
